# Columns and labels:
# Format in all cases: in vivo
# Details in all cases: PREEMERGENCE
# [1] = system: barnyardgrass (Echinochloa crus-galli); assay: Test E pre-/postemergence/post directed
# How it was run: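 Injury scored visually on a 0–100 scale (100 = complete control) 13 to 21 days after treatment. Test chemicals, formulated with surfactant in non-phytotoxic solvent, were applied to soil within one day of planting, to plants at two to four leaves (three to twenty cm), or as directed spray at plant base.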
# [2] = system: black nightshade (Solanum nigra); assay: Test D; set-up: key: 0 is no effect; 100 is complete control
# [3] = system: spring wheat (Triticum aestivum); assay: Test D; set-up: key to Plant response rating, Spring Wheat: 0 is no effect
# [4] = system: wild buckwheat (Polygonum convolvulus); assay: Test D
# [5] = system: spring barley (Hordeum vulgare); assay: Test D; set-up: key: 0 is no effect
# [6] = system: chickweed (Stellaria media); assay: Test D
# [7] = system: winter barley (Hordeum vulgare); assay: Test D; set-up: key: 0 is no effect
# [8] = system: galium 2 (Galium aparine); assay: Test D; set-up: key: 0 is no effect; 100 is complete control
# [9] = system: windgrass (Apera spica-venti); assay: Test D; set-up: key: 0 is no effect; 100 is complete control
# [10] = system: kochia (Kochia scoparia); assay: Test D; set-up: key: 0 is no effect; 100 is complete control
# [11] = system: jointed goatgrass (Aegilops cylindrica); assay: Test D; set-up: key: 0 is no effect
# [12] = system: lambsquarters (Chenopodium album); assay: Test D; set-up: key: 0 is no effect; 100 is complete control
# [13] = system: sugar beet (Beta vulgaris); assay: Test D; set-up: key: 0 is no effect; 100 is complete control
# [14] = system: scentless chamomile (Matricaria inodora); assay: Test D
# [15] = system: ivyleaf speedwell (Veronica hederaefolia); assay: Test D; set-up: key: 0 is no effect; 100 is complete control
# [16] = system: Russian thistle (Salsola kali); assay: Test D
structure (smiles),measurement,setting,value
Cc1cnc(-c2ccc(C(F)(F)F)cc2)nc1Cc1cccc(OC(F)(F)F)c1 [Compound 15],"Plant response rating, Barnyardgrass",[1]; Rate 125 g/ha,40
same,"Plant response rating, Barnyardgrass",[1]; Rate 250 g/ha,75
CCc1cnc(-c2ccc(C(F)(F)F)cc2)nc1Cc1cccc(C(F)(F)F)c1 [Compound 22],"Plant response rating, Blk nightshade",[2]; Rate 62 g/ha,10
same,"Plant response rating, Blk nightshade",[2]; Rate 125 g/ha,60
same,"Plant response rating, Blk nightshade",[2]; Rate 250 g/ha,50
same,"Plant response rating, Spring Wheat",[3]; Rate 62 g/ha,0
same,"Plant response rating, Spring Wheat",[3]; Rate 125 g/ha,10
same,"Plant response rating, Spring Wheat",[3]; Rate 250 g/ha,5
same,"Plant response rating, Wild buckwheat",[4]; Rate 125 g/ha,55
same,"Plant response rating, Wild buckwheat",[4]; Rate 250 g/ha,30
same,"Plant response rating, Spring Barley",[5]; Rate 62 g/ha,0
same,"Plant response rating, Spring Barley",[5]; Rate 125 g/ha,10
same,"Plant response rating, Spring Barley",[5]; Rate 250 g/ha,2
same,"Plant response rating, Chickweed",[6]; Rate 62 g/ha,40
same,"Plant response rating, Chickweed",[6]; Rate 125 g/ha,70
same,"Plant response rating, Chickweed",[6]; Rate 250 g/ha,30
same,"Plant response rating, Barley (winter)",[7]; Rate 62 g/ha,0
same,"Plant response rating, Barley (winter)",[7]; Rate 125 g/ha,20
same,"Plant response rating, Barley (winter)",[7]; Rate 250 g/ha,10
same,"Plant response rating, Galium",[8]; Rate 62 g/ha,20
same,"Plant response rating, Galium",[8]; Rate 125 g/ha,100
same,"Plant response rating, Galium",[8]; Rate 250 g/ha,30
same,"Plant response rating, Windgrass",[9]; Rate 62 g/ha,20
same,"Plant response rating, Windgrass",[9]; Rate 125 g/ha,70
same,"Plant response rating, Windgrass",[9]; Rate 250 g/ha,30
same,"Plant response rating, Kochia",[10]; Rate 62 g/ha,10
same,"Plant response rating, Kochia",[10]; Rate 125 g/ha,65
same,"Plant response rating, Kochia",[10]; Rate 250 g/ha,60
same,"Plant response rating, Jointed goatgra",[11]; Rate 62 g/ha,0
same,"Plant response rating, Jointed goatgra",[11]; Rate 125 g/ha,20
same,"Plant response rating, Jointed goatgra",[11]; Rate 250 g/ha,10
same,"Plant response rating, Lambsquarters",[12]; Rate 62 g/ha,60
same,"Plant response rating, Lambsquarters",[12]; Rate 125 g/ha,70
same,"Plant response rating, Lambsquarters",[12]; Rate 250 g/ha,70
same,"Plant response rating, Sugar beet",[13]; Rate 62 g/ha,30
same,"Plant response rating, Sugar beet",[13]; Rate 125 g/ha,100
same,"Plant response rating, Sugar beet",[13]; Rate 250 g/ha,80
same,"Plant response rating, Scentless chamo",[14]; Rate 62 g/ha,60
same,"Plant response rating, Scentless chamo",[14]; Rate 125 g/ha,70
same,"Plant response rating, Scentless chamo",[14]; Rate 250 g/ha,70
CCc1cnc(-n2ccc(C(F)(F)F)n2)nc1Cc1cccc(C(F)(F)F)c1 [Compound 46],"Plant response rating, Blk nightshade",[2]; Rate 31 g/ha,50
same,"Plant response rating, Blk nightshade",[2]; Rate 62 g/ha,50
same,"Plant response rating, Ivyleaf speedwe",[15]; Rate 31 g/ha,100
same,"Plant response rating, Ivyleaf speedwe",[15]; Rate 62 g/ha,100
same,"Plant response rating, Spring Wheat",[3]; Rate 31 g/ha,30
same,"Plant response rating, Spring Wheat",[3]; Rate 62 g/ha,10
same,"Plant response rating, Wild buckwheat",[4]; Rate 31 g/ha,40
same,"Plant response rating, Wild buckwheat",[4]; Rate 62 g/ha,40
same,"Plant response rating, Spring Barley",[5]; Rate 31 g/ha,30
same,"Plant response rating, Spring Barley",[5]; Rate 62 g/ha,5
same,"Plant response rating, Chickweed",[6]; Rate 31 g/ha,70
same,"Plant response rating, Chickweed",[6]; Rate 62 g/ha,70
same,"Plant response rating, Barley (winter)",[7]; Rate 31 g/ha,50
same,"Plant response rating, Barley (winter)",[7]; Rate 62 g/ha,2
same,"Plant response rating, Galium",[8]; Rate 31 g/ha,60
same,"Plant response rating, Galium",[8]; Rate 62 g/ha,60
same,"Plant response rating, Russian thistle",[16]; Rate 31 g/ha,30
same,"Plant response rating, Russian thistle",[16]; Rate 62 g/ha,30
same,"Plant response rating, Windgrass",[9]; Rate 31 g/ha,40
same,"Plant response rating, Windgrass",[9]; Rate 62 g/ha,100
same,"Plant response rating, Kochia",[10]; Rate 31 g/ha,60
same,"Plant response rating, Kochia",[10]; Rate 62 g/ha,60
same,"Plant response rating, Jointed goatgra",[11]; Rate 31 g/ha,50
same,"Plant response rating, Jointed goatgra",[11]; Rate 62 g/ha,60
same,"Plant response rating, Lambsquarters",[12]; Rate 31 g/ha,65
same,"Plant response rating, Lambsquarters",[12]; Rate 62 g/ha,70
same,"Plant response rating, Sugar beet",[13]; Rate 31 g/ha,70
same,"Plant response rating, Sugar beet",[13]; Rate 62 g/ha,100
same,"Plant response rating, Scentless chamo",[14]; Rate 31 g/ha,65
same,"Plant response rating, Scentless chamo",[14]; Rate 62 g/ha,70
Cc1cnc(-n2cnc(C(F)(F)F)n2)nc1Cn1ccc(C(F)(F)F)n1 [Compound 51],"Plant response rating, Blk nightshade",[2]; Rate 31 g/ha,100
same,"Plant response rating, Blk nightshade",[2]; Rate 62 g/ha,95
same,"Plant response rating, Ivyleaf speedwe",[15]; Rate 31 g/ha,100
same,"Plant response rating, Ivyleaf speedwe",[15]; Rate 62 g/ha,100
same,"Plant response rating, Spring Wheat",[3]; Rate 31 g/ha,60
same,"Plant response rating, Spring Wheat",[3]; Rate 62 g/ha,70
same,"Plant response rating, Wild buckwheat",[4]; Rate 31 g/ha,90
same,"Plant response rating, Wild buckwheat",[4]; Rate 62 g/ha,90
same,"Plant response rating, Spring Barley",[5]; Rate 31 g/ha,70
same,"Plant response rating, Spring Barley",[5]; Rate 62 g/ha,80
same,"Plant response rating, Chickweed",[6]; Rate 31 g/ha,80
same,"Plant response rating, Chickweed",[6]; Rate 62 g/ha,90
same,"Plant response rating, Barley (winter)",[7]; Rate 31 g/ha,50
same,"Plant response rating, Barley (winter)",[7]; Rate 62 g/ha,90
same,"Plant response rating, Galium",[8]; Rate 31 g/ha,100
same,"Plant response rating, Galium",[8]; Rate 62 g/ha,100
same,"Plant response rating, Russian thistle",[16]; Rate 31 g/ha,60
same,"Plant response rating, Russian thistle",[16]; Rate 62 g/ha,70
same,"Plant response rating, Windgrass",[9]; Rate 31 g/ha,100
same,"Plant response rating, Windgrass",[9]; Rate 62 g/ha,100
same,"Plant response rating, Kochia",[10]; Rate 31 g/ha,85
same,"Plant response rating, Kochia",[10]; Rate 62 g/ha,80
same,"Plant response rating, Jointed goatgra",[11]; Rate 31 g/ha,60
same,"Plant response rating, Jointed goatgra",[11]; Rate 62 g/ha,90
same,"Plant response rating, Lambsquarters",[12]; Rate 31 g/ha,70
same,"Plant response rating, Lambsquarters",[12]; Rate 62 g/ha,70
same,"Plant response rating, Sugar beet",[13]; Rate 31 g/ha,100
same,"Plant response rating, Sugar beet",[13]; Rate 62 g/ha,100
same,"Plant response rating, Scentless chamo",[14]; Rate 31 g/ha,65
same,"Plant response rating, Scentless chamo",[14]; Rate 62 g/ha,70
Cc1cnc(-n2ccc(C(F)(F)F)n2)nc1Cn1ccc(C(F)(F)F)n1 [Compound 52],"Plant response rating, Blk nightshade",[2]; Rate 31 g/ha,10
same,"Plant response rating, Blk nightshade",[2]; Rate 62 g/ha,40
same,"Plant response rating, Blk nightshade",[2]; Rate 125 g/ha,90
same,"Plant response rating, Spring Wheat",[3]; Rate 31 g/ha,60
same,"Plant response rating, Spring Wheat",[3]; Rate 62 g/ha,70
same,"Plant response rating, Spring Wheat",[3]; Rate 125 g/ha,70
same,"Plant response rating, Wild buckwheat",[4]; Rate 31 g/ha,40
same,"Plant response rating, Wild buckwheat",[4]; Rate 62 g/ha,60
same,"Plant response rating, Spring Barley",[5]; Rate 31 g/ha,50
same,"Plant response rating, Spring Barley",[5]; Rate 62 g/ha,60
same,"Plant response rating, Spring Barley",[5]; Rate 125 g/ha,80
same,"Plant response rating, Chickweed",[6]; Rate 31 g/ha,30
same,"Plant response rating, Chickweed",[6]; Rate 62 g/ha,80
same,"Plant response rating, Chickweed",[6]; Rate 125 g/ha,85
same,"Plant response rating, Barley (winter)",[7]; Rate 31 g/ha,50
same,"Plant response rating, Barley (winter)",[7]; Rate 62 g/ha,50
same,"Plant response rating, Barley (winter)",[7]; Rate 125 g/ha,60
same,"Plant response rating, Russian thistle",[16]; Rate 31 g/ha,30
same,"Plant response rating, Russian thistle",[16]; Rate 62 g/ha,85
same,"Plant response rating, Russian thistle",[16]; Rate 125 g/ha,85
same,"Plant response rating, Windgrass",[9]; Rate 31 g/ha,80
same,"Plant response rating, Windgrass",[9]; Rate 62 g/ha,100
same,"Plant response rating, Windgrass",[9]; Rate 125 g/ha,100
same,"Plant response rating, Kochia",[10]; Rate 31 g/ha,50
same,"Plant response rating, Kochia",[10]; Rate 62 g/ha,80
same,"Plant response rating, Kochia",[10]; Rate 125 g/ha,100
same,"Plant response rating, Jointed goatgra",[11]; Rate 31 g/ha,30
same,"Plant response rating, Jointed goatgra",[11]; Rate 62 g/ha,40
same,"Plant response rating, Jointed goatgra",[11]; Rate 125 g/ha,40
same,"Plant response rating, Lambsquarters",[12]; Rate 31 g/ha,90
same,"Plant response rating, Lambsquarters",[12]; Rate 62 g/ha,90
same,"Plant response rating, Lambsquarters",[12]; Rate 125 g/ha,100
same,"Plant response rating, Sugar beet",[13]; Rate 31 g/ha,100
same,"Plant response rating, Sugar beet",[13]; Rate 62 g/ha,100
same,"Plant response rating, Sugar beet",[13]; Rate 125 g/ha,100
"Cc1cnc(-n2ccc(C(F)(F)F)n2)nc1Cc1cccc(C(F)(F)F)c1 [Example 2, 5-methyl-4-[[3-(trifluoromethyl)phenyl]methyl]-2-[3-(trifluoromethyl)-1H-pyrazol-1-yl]pyrimidine]","Plant response rating, Barnyardgrass",[1]; Rate 32 g/ha,20
same,"Plant response rating, Barnyardgrass",[1]; Rate 64 g/ha,95

# Source: patent US6525001B1, “Substituted pyrimidine and pyridine herbicides” (Mid-American Commercialization Corporation, priority 1997, dated 2003)
